In patent US20220105157A1, “Compositions and Methods for Promoting Angiogenesis in the Eye” (The Regents of the University of California, priority 2019, published 2022):

Assays:
[1] = system: BCE cells; experiment: Gene expression in LIF-treated BCE cells (RNA-seq, qRT-PCR); type: cell-based, bovine
Protocol: (§1) BCE and BAE cells, after the indicated treatments, were lysed with Trizol reagent (Invitrogen, CAT #15596026) and subjected to RNA extraction following manufacturer's instructions. RNA concentrations were determined with Nanodrop 2000 (ThermoFisher Scientific) and 1 μg of total RNAs were reverse-transcribed to cDNAs using the High-Capacity cDNA Reverse Transcription Kit (Applied Biosystems, CAT #4368814). Equal amounts (generally 10 ng/reaction) of cDNAs were subjected to qRT-PCR analyses using the TaqMan Fast Advanced Master Mix (Applied Biosystems, CAT #4444557) and the ViiA7 Real-time PCR system. Relative mRNA levels of the examined genes were normalized to the internal control RPLP0 (Ribosomal Protein Lateral Stalk Subunit P0), determined by comparing with control sample group, and reported as fold changes. TaqMan gene expression assay probes were used: bovine RPLP0 (Bt03218086_ml), bovine STAT3 (Bt03259865_ml), bovine CTSL1 (Bt03257307_ml and Bt03257309_ml), bovine CTSB (Bt03259161_ml), bovine MYC (Bt03260377_ml), bovine JunB (Bt03246919_s1), bovine CCNA2 (Bt03240503_g1), bovine CCNB1 (Bt03237853_g1), and bovine PIM1 (Bt03212957_ml). The experiment was carried out in triplicate and repeated three times.

[2] = system: BAE cells; experiment: Annexin V staining for cell death; type: cell-based, bovine; conditions: BAE cells treated with LIF (10 ng/ml) for 24 hours
Protocol: BAE cells were plated at a density of 2×10^4 cells/well with 1 ml of culture medium (DMEM-low glucose plus 10% BCS) in 12-well plates and then incubated at 37° C. overnight. After removal of culture medium, cells were incubated in 0.5 ml of DMEM-low glucose plus 1% BCS. LIF (10 ng/ml) and vehicle control (0.1% BSA in PBS) were added to the cells. Following LIF treatment for 24 hours, cells were examined for cell death marker Annexin V using Annexin V-Cy5 Apoptosis Staining Detection Kit (Abcam, CAT #ab14150) according to manufacturer's instructions. Briefly, cell culture medium was removed and 0.5 ml of Annexin V binding solution was laid over onto the cells. Cells were incubated at room temperature for 5 min following addition of 5 μl of Annexin V-Cy5. Then, the staining solution was discarded and replaced with 0.5 ml of Annexin V binding solution. Imaging of Annexin V staining were performed using Keyence Microscope BZ-X710 (Keyence Corporation, Osaka, Japan). Four random fields were selected and the percentages of Annexin V-staining area in total cell-covered area as indicatives for cell death were determined using ImageJ software. The experiment was carried out in triplicate and repeated three time.

[3] = system: bovine choroidal endothelial (BCE) cells; experiment: BCE endothelial cell proliferation assay (alamar blue); type: cell-based
Protocol: (§2) The bovine endothelial proliferation assays were performed essentially as previously described (63, 64). BCE (1×10^3 cells/well) or BRE (5×10^2 cells/well) cells were seeded in 96-well plates in the culture medium (DMEM-low glucose supplemented with 10% BCS, 2 mM glutamine and antibiotics) plus testing materials with a total volume of 200 μl per well. BAE cells were plated in 96-well plates at a density of 2×10^3 cells in the culture medium (DMEM-low glucose supplemented with 1% BCS and antibiotics) plus testing material with a total volume of 200 μl per well. HRME cells were seeded at a density of 1×10^3 cells/well in gelatin-coated 96-well plates in assay medium (DMEM-low glucose supplemented with 20% FBS and antibiotics) plus testing materials to make a total volume 200 μl per well. For assays involving antibodies or small-molecule inhibitors, inhibitors or vehicle controls were first added and then test materials were added one hour later. After 6 days (unless otherwise specified), cells were incubated with alamar blue for 4 h. Fluorescence was measured at 530 nm excitation wavelength and 590 nm emission wavelength. Each experiment was carried out in duplicate/triplicate and repeated at least three times.

[4] = system: BAE cells; experiment: BrdU incorporation assay; type: cell-based, bovine; conditions: LIF 48 hours
Protocol: BAE cells were plated at the density of 2×10^4 cells/well with 1 ml of culture medium (DMEM-low glucose plus 10% BCS) in a 12-well plate with a 18-mm poly-D-lysine-treated coverslip in each well, incubating at 37° C. overnight. After removal of culture medium, cells were incubated in 0.5 ml of DMEM-low glucose plus 1% BCS. LIF (10 ng/ml) and vehicle control (0.1% BSA in PBS) were added to the cells. Upon LIF treatment for 48 hours, cells were subjected to BrdU incorporation by adding 2.5 μl of 2 mM BrdU in DMSO to each well to a final concentration 10 μM and incubating for 4 hours. Then, cells are subjected to BrdU immunofluorescence staining using an antibody against BrdU conjugated with Fluor alexa-488 (Biolegend, CAT #364106, 1:400). Briefly, BrdU labeling medium was removed from the culture plates and cells were fixed with 3.7% formaldehyde in PBS at room temperature for 15 minutes. Cell DNAs were denatured with 1N HCl on ice for 10 minutes and 2N HCl at room temperature for 10 minutes following cell permeabilization with 0.1% Triton X-100 in PBS (PBST). […] Four fields were randomly selected for each sample and the BrdU-positive nuclei as well as total nuclei (DAPI-positive) were counted manually; the percentages of BrdU-positive cells were determined by dividing the numbers of BrdU-positive nuclei with the numbers of total nuclei. […]

[5] = system: bovine aortic endothelial (BAE) cells; experiment: BAE endothelial cell proliferation assay (alamar blue); type: cell-based
Protocol: as §2

[6] = system: BAE cells; experiment: Gene and protein expression in LIF-treated BAE cells (RNA-seq, qRT-PCR, cathepsin L ELISA); type: cell-based, bovine
Protocol: VEGF and LIF levels in LN-229 CM samples were determined by a human VEGF ELISA kit (R&D Systems, CAT #DVE00) and a human LIF ELISA kit (Biolegend, CAT #443507) according to manufacturers' instructions, respectively. Cathepsin L levels in BAE cells were measured using a bovine cathepsin L ELISA kit (MyBioSource, Inc, CAT #MBS2887609) per manufacturer's instructions.
as §1

Substance: LIF: recombinant human leukemia inhibitory factor, a member of the IL-6 family of cytokines
- upregulation of IGFBP3 ([1]; BCE cells incubated with LIF for 6 hours, RNA-seq): not in BCE cells
- MYC expression ([1]; BCE cells, LIF treatment): upregulation
- cathepsin L mRNA (CTSL) levels ([1]; BCE cells, vehicle or LIF, qRT-PCR): not detectable
- Annexin V positive cells (cell death marker) [2]: increased proportion of cells were Annexin V positive
- stimulation of BCE cell growth (mitogenic activity) [3]: stimulated growth of BCE cells
- BrdU incorporation compared to the vehicle control [4]: significantly reduced
- BAE cell growth [5]: growth inhibition
- upregulation of IGFBP3 ([6]; BAE cells incubated with LIF for 6 hours, RNA-seq, confirmed by qRT-PCR): approximately 8 fold
- cyclin A/B expression ([6]; BAE cells, LIF 10 ng/ml 24 hours, qRT-PCR): downregulation
- CTSB (cathepsin B) levels ([6]; BAE cells, LIF 24 hours): not CTSB
- CTSL (cathepsin L) mRNA and protein levels ([6]; BAE cells, LIF 24 hours): dramatically upregulated
- PIM1 expression ([6]; BAE cells, LIF treatment): induction
